# Measurements published in ChEMBL document CHEMBL1649287, “Postantibiotic effect of ceftaroline against gram-positive organisms” (2009).
# What was measured:
# Format in all cases: functional
# Enterococcus faecalis [1] = assay: Antimicrobial activity against vancomycin-sensitive Enterococcus faecalis 10 assessed as time required to induce post antibiotic sub-MIC effect at 0.2 times MIC after 1 hr by plate counting method; settings: Enterococcus faecalis, 10, 1 h
# Enterococcus faecalis [2] = assay: Antimicrobial activity against vancomycin-sensitive Enterococcus faecalis 20 assessed as post antibiotic effect at 10 times MIC after 1 hr by plate counting method; settings: Enterococcus faecalis, 20, 1 h
# Staphylococcus aureus [3] = assay: Antimicrobial activity against methicillin-resistant, vancomycin-intermediate Staphylococcus aureus 510 assessed as time required to induce post antibiotic sub-MIC effect at 0.3 times MIC after 1 hr by plate counting method; settings: Staphylococcus aureus, 510, 1 h
# Staphylococcus aureus [4] = assay: Antimicrobial activity against methicillin-susceptible, vancomycin-susceptible Staphylococcus aureus ATCC 29213 assessed as time required to induce sub-MIC effect at 0.4 times MIC after 1 hr by plate counting method; settings: ATCC 29213, 1 h
# Enterococcus faecalis [5] = assay: Antimicrobial activity against vancomycin-sensitive Enterococcus faecalis 20 assessed as time required to induce post antibiotic sub-MIC effect at 0.2 times MIC after 1 hr by plate counting method; settings: Enterococcus faecalis, 20, 1 h
# Streptococcus pneumoniae [6] = assay: Antimicrobial activity against Penicillin-susceptible Streptococcus pneumoniae ATCC 49617 assessed as time required to induce post antibiotic sub-MIC effect at 0.2 times MIC after 1 hr by plate counting method; settings: ATCC 49617, 1 h
# Staphylococcus aureus [7] = assay: Antimicrobial activity against methicillin-susceptible, vancomycin-susceptible Staphylococcus aureus sox1 assessed as post antibiotic effect at 10 times MIC after 1 hr by plate counting method; settings: sox1, 1 h
# Enterococcus faecalis [8] = assay: Antimicrobial activity against vancomycin-resistant Enterococcus faecalis 266 assessed as time required to induce sub-MIC effect at 0.4 times MIC after 1 hr by plate counting method; settings: Enterococcus faecalis, 266, 1 h
# Staphylococcus aureus [9] = assay: Antimicrobial activity against methicillin-susceptible, vancomycin-susceptible Staphylococcus aureus sox1 assessed as time required to induce sub-MIC effect at 0.3 times MIC after 1 hr by plate counting method; settings: sox1, 1 h
# Staphylococcus aureus [10] = assay: Antimicrobial activity against methicillin-resistant, vancomycin-hetroresistant Staphylococcus aureus 618 by microdilution method
# Staphylococcus aureus [11] = assay: Antimicrobial activity against methicillin-resistant, vancomycin-susceptible Staphylococcus aureus vs1 assessed as post antibiotic effect at 10 times MIC after 1 hr by plate counting method; settings: vs1, 1 h
# Enterococcus faecalis [12] = assay: Antimicrobial activity against vancomycin-sensitive Enterococcus faecalis 20 assessed as time required to induce sub-MIC effect at 0.4 times MIC after 1 hr by plate counting method; settings: Enterococcus faecalis, 20, 1 h
# Staphylococcus aureus [13] = assay: Antimicrobial activity against methicillin-susceptible, vancomycin-susceptible Staphylococcus aureus sox1 assessed as time required to induce post antibiotic sub-MIC effect at 0.4 times MIC after 1 hr by plate counting method; settings: sox1, 1 h
# Streptococcus pneumoniae [14] = assay: Antimicrobial activity against Penicillin-intermediate Streptococcus pneumoniae s1234 assessed as time required to induce post antibiotic sub-MIC effect at 0.3 times MIC after 1 hr by plate counting method; settings: s1234, 1 h
# Streptococcus pneumoniae [15] = assay: Antimicrobial activity against Penicillin-intermediate Streptococcus pneumoniae s1234 assessed as time required to induce sub-MIC effect at 0.2 times MIC after 1 hr by plate counting method
# Staphylococcus aureus [16] = assay: Antimicrobial activity against methicillin-resistant, vancomycin-resistant Staphylococcus aureus 770 assessed as time required to induce post antibiotic sub-MIC effect at 0.2 times MIC after 1 hr by plate counting method; settings: Staphylococcus aureus, 770, 1 h
# Enterococcus faecalis [17] = assay: Antimicrobial activity against vancomycin-sensitive Enterococcus faecalis ATCC 29212 assessed as time required to induce post antibiotic sub-MIC effect at 0.2 times MIC after 1 hr by plate counting method; settings: ATCC 29212, 1 h
# Staphylococcus aureus [18] = assay: Antimicrobial activity against methicillin-resistant, vancomycin-intermediate Staphylococcus aureus 510 assessed as time required to induce sub-MIC effect at 0.3 times MIC after 1 hr by plate counting method; settings: Staphylococcus aureus, 510, 1 h
# Enterococcus faecalis [19] = assay: Antimicrobial activity against vancomycin-resistant Enterococcus faecalis 266 assessed as time required to induce post antibiotic sub-MIC effect at 0.3 times MIC after 1 hr by plate counting method; settings: Enterococcus faecalis, 266, 1 h
# Enterococcus faecalis [20] = assay: Antimicrobial activity against vancomycin-sensitive Enterococcus faecalis 10 assessed as time required to induce post antibiotic sub-MIC effect at 0.3 times MIC after 1 hr by plate counting method; settings: Enterococcus faecalis, 10, 1 h
# Staphylococcus aureus [21] = assay: Antimicrobial activity against methicillin-resistant, vancomycin-hetroresistant Staphylococcus aureus 618 assessed as post antibiotic effect at 10 times MIC after 1 hr by plate counting method; settings: Staphylococcus aureus, 618, 1 h
# Enterococcus faecalis [22] = assay: Antimicrobial activity against vancomycin-sensitive Enterococcus faecalis ATCC 29212 assessed as time required to induce post antibiotic sub-MIC effect at 0.3 times MIC after 1 hr by plate counting method; settings: ATCC 29212, 1 h
# Streptococcus pneumoniae [23] = assay: Antimicrobial activity against Penicillin-susceptible Streptococcus pneumoniae ATCC 49617 by microdilution method
# Streptococcus pneumoniae [24] = assay: Antimicrobial activity against Penicillin-, erythromycin-resistant Streptococcus pneumoniae 37 by microdilution method
# Streptococcus pneumoniae [25] = assay: Antimicrobial activity against Penicillin-intermediate Streptococcus pneumoniae s1234 assessed as time required to induce post antibiotic sub-MIC effect at 0.4 times MIC after 1 hr by plate counting method; settings: s1234, 1 h
# Streptococcus pneumoniae [26] = assay: Antimicrobial activity against Penicillin-intermediate Streptococcus pneumoniae s1234 assessed as time required to induce post antibiotic sub-MIC effect at 0.2 times MIC after 1 hr by plate counting method; settings: s1234, 1 h
# Staphylococcus aureus [27] = assay: Antimicrobial activity against methicillin-susceptible, vancomycin-susceptible Staphylococcus aureus sox1 assessed as time required to induce post antibiotic sub-MIC effect at 0.2 times MIC after 1 hr by plate counting method; settings: sox1, 1 h
# Streptococcus pneumoniae [28] = assay: Antimicrobial activity against Penicillin-susceptible Streptococcus pneumoniae s502 assessed as time required to induce sub-MIC effect at 0.2 times MIC after 1 hr by plate counting method
# Streptococcus pneumoniae [29] = assay: Antimicrobial activity against Penicillin-susceptible Streptococcus pneumoniae s502 assessed as time required to induce post antibiotic sub-MIC effect at 0.3 times MIC after 1 hr by plate counting method; settings: s502, 1 h
# Staphylococcus aureus [30] = assay: Antimicrobial activity against methicillin-resistant, vancomycin-resistant Staphylococcus aureus 770 assessed as time required to induce sub-MIC effect at 0.3 times MIC after 1 hr by plate counting method; settings: Staphylococcus aureus, 770, 1 h
# Enterococcus faecalis [31] = assay: Antimicrobial activity against vancomycin-resistant Enterococcus faecalis 609 assessed as post antibiotic effect at 10 times MIC after 1 hr by plate counting method; settings: Enterococcus faecalis, 609, 1 h
# Streptococcus pneumoniae [32] = assay: Antimicrobial activity against Penicillin-susceptible Streptococcus pneumoniae ATCC 49617 assessed as time required to induce sub-MIC effect at 0.2 times MIC after 1 hr by plate counting method; settings: ATCC 49617, 1 h
# Streptococcus pneumoniae [33] = assay: Antimicrobial activity against Penicillin-susceptible Streptococcus pneumoniae ATCC 49617 assessed as post antibiotic effect at 10 times MIC after 1 hr by plate counting method; settings: ATCC 49617, 1 h
# Staphylococcus aureus [34] = assay: Antimicrobial activity against methicillin-resistant, vancomycin-resistant Staphylococcus aureus 770 assessed as time required to induce post antibiotic sub-MIC effect at 0.4 times MIC after 1 hr by plate counting method; settings: Staphylococcus aureus, 770, 1 h
compound,measurement,setting,value
CCO/N=C(\C(=O)N[C@@H]1C(=O)N2C(C(=O)[O-])=C(Sc3nc(-c4cc[n+](C)cc4)cs3)CS[C@H]12)c1nsc(NP(=O)(O)O)n1 [CEFTAROLINE FOSAMIL],PAE,Enterococcus faecalis [1],3.2 h
same,PAE,Enterococcus faecalis [2],0.5 h
same,time,Staphylococcus aureus [3],> 9.1 h
same,PAE,Staphylococcus aureus [4],2.8 h
same,PAE,Enterococcus faecalis [5],4.1 h
same,PAE,Streptococcus pneumoniae [6],4.1 h
same,PAE,Staphylococcus aureus [7],0.8 h
same,time,Enterococcus faecalis [8],9.5 h
same,PAE,Staphylococcus aureus [9],0.9 h
same,MIC,Staphylococcus aureus [10],2 µg/mL
same,PAE,Staphylococcus aureus [11],1.2 h
same,PAE,Enterococcus faecalis [12],3.6 h
same,PAE,Staphylococcus aureus [13],6.2 h
same,PAE,Streptococcus pneumoniae [14],1.8 h
same,PAE,Streptococcus pneumoniae [15],0 h
same,time,Staphylococcus aureus [16],1.5 h
same,PAE,Enterococcus faecalis [17],7.6 h
same,time,Staphylococcus aureus [18],0.7 h
same,time,Enterococcus faecalis [19],> 10.3 h
same,PAE,Enterococcus faecalis [20],6.6 h
same,PAE,Staphylococcus aureus [21],0.7 h
same,PAE,Enterococcus faecalis [22],> 10.6 h
same,MIC,Streptococcus pneumoniae [23],0.016 µg/mL
same,MIC,Streptococcus pneumoniae [24],0.25 µg/mL
same,PAE,Streptococcus pneumoniae [25],2.5 h
same,PAE,Streptococcus pneumoniae [26],1.4 h
same,time,Staphylococcus aureus [27],2.2 h
same,PAE,Streptococcus pneumoniae [28],0 h
same,PAE,Streptococcus pneumoniae [29],3.5 h
same,time,Staphylococcus aureus [30],0.5 h
same,PAE,Enterococcus faecalis [31],0.2 h
same,PAE,Streptococcus pneumoniae [32],0.2 h
same,PAE,Streptococcus pneumoniae [33],1.6 h
same,time,Staphylococcus aureus [34],7.1 h
